Measured values published in the supplement of paper PMC10307832.

What was measured:
Experiment in all cases: relative viability (nuclei count vs DMSO), 5 days (fraction); higher = more cells survive
BMX-IN-1 + Crizotinib = compound: C=CC(=O)Nc1cc(-n2c(=O)ccc3cnc4ccc(-c5ccc(NS(C)(=O)=O)cc5)cc4c32)ccc1C [BMX-IN-1] + C[C@@H](Oc1cc(-c2cnn(C3CCNCC3)c2)cnc1N)c1c(Cl)ccc(F)c1Cl [Crizotinib] (partner 1 µM)
Method in brief: (§1)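 Five library-drug doses in √10 steps were combined with a fixed anchor-drug dose, or a single drug was given alone, by pin tool to lung cancer cell lines in 1536-well plates the day after seeding. Nuclei were stained and counted after 5 days. Relative viability is the nuclei count in treated wells over that in vehicle wells, taken as the median of duplicate plates.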

BMX-IN-1 + Decitabine = compound: C=CC(=O)Nc1cc(-n2c(=O)ccc3cnc4ccc(-c5ccc(NS(C)(=O)=O)cc5)cc4c32)ccc1C [BMX-IN-1] + Nc1ncn([C@H]2C[C@H](O)[C@@H](CO)O2)c(=O)n1 [Decitabine] (partner 2 µM)
Method in brief: as §1

PAC-1 + Vorinostat = compound: C=CCc1cccc(/C=N/NC(=O)CN2CCN(Cc3ccccc3)CC2)c1O [PAC-1] + O=C(CCCCCCC(=O)Nc1ccccc1)NO [Vorinostat] (partner 1 µM)
Method in brief: as §1

BMX-IN-1 + Alpelisib = compound: C=CC(=O)Nc1cc(-n2c(=O)ccc3cnc4ccc(-c5ccc(NS(C)(=O)=O)cc5)cc4c32)ccc1C [BMX-IN-1] + Cc1nc(NC(=O)N2CCC[C@H]2C(N)=O)sc1-c1ccnc(C(C)(C)C(F)(F)F)c1 [Alpelisib] (partner 2 µM)
Method in brief: as §1

PAC-1 + Palbociclib = compound: C=CCc1cccc(/C=N/NC(=O)CN2CCN(Cc3ccccc3)CC2)c1O [PAC-1] + CC(=O)c1c(C)c2cnc(Nc3ccc(N4CCNCC4)cn3)nc2n(C2CCCC2)c1=O [Palbociclib] (partner 0.5 µM)
Method in brief: as §1

Cell Line	relative viability (BMX-IN-1 + Crizotinib; first compound 0.02 µM)	relative viability (BMX-IN-1 + Crizotinib; first compound 0.2 µM)	relative viability (BMX-IN-1 + Crizotinib; first compound 0.6325 µM)	relative viability (BMX-IN-1 + Crizotinib; first compound 2 µM)	relative viability (BMX-IN-1 + Decitabine; first compound 0.02 µM)	relative viability (BMX-IN-1 + Decitabine; first compound 0.2 µM)	relative viability (BMX-IN-1 + Decitabine; first compound 0.6325 µM)	relative viability (BMX-IN-1 + Decitabine; first compound 2 µM)	relative viability (PAC-1 + Vorinostat; first compound 0.02 µM)	relative viability (PAC-1 + Vorinostat; first compound 0.06325 µM)	relative viability (PAC-1 + Vorinostat; first compound 0.2 µM)	relative viability (PAC-1 + Vorinostat; first compound 2 µM)	relative viability (BMX-IN-1 + Alpelisib; first compound 0.02 µM)	relative viability (BMX-IN-1 + Alpelisib; first compound 0.2 µM)	relative viability (BMX-IN-1 + Alpelisib; first compound 0.6325 µM)	relative viability (BMX-IN-1 + Alpelisib; first compound 2 µM)	relative viability (PAC-1 + Palbociclib; first compound 0.02 µM)	relative viability (PAC-1 + Palbociclib; first compound 0.06325 µM)	relative viability (PAC-1 + Palbociclib; first compound 0.2 µM)	relative viability (PAC-1 + Palbociclib; first compound 2 µM)
NCI-H2170	1.5	1.27	1.1	1.38	0.454	0.499	0.469	0.495	0.894	0.809	0.795	0.775	0.91	0.859	0.921	0.821	0.417	0.39	0.376	0.343
NCI-H2347	0.735	0.678	0.675	0.624	0.647	0.678	0.608	0.75	0.589	0.593	0.606	0.657	1.25	1.07	1.16	0.974	0.499	0.435	0.477	0.414
NCI-H2405	0.939	0.892	0.903	0.886	0.702	0.723	0.851	0.716	1.05	1.12	1.14	1.15	0.816	0.755	0.747	0.766	0.53	0.502	0.502	0.509
NCI-H3122	0.3	0.27	0.271	0.3	0.421	0.33	0.548	0.514	1.01	0.972	0.787	0.83	0.815	0.879	0.657	0.812	0.188	0.179	0.198	0.214
PC-3 [JPC-3]	1.34	1.03	1.03	0.99	0.84	0.754	0.816	0.885	0.82	0.915	1.06	0.832	1.17	1.06	1.09	1.09	0.567	0.502	0.535	0.514
PC-14	0.909	1.07	0.964	0.987	0.18	0.227	0.292	0.305	0.816	0.764	0.629	0.743	1.08	1.03	0.981	0.983	0.586	0.504	0.487	0.606
RERF-LC-KJ	0.813	1.09	0.865	0.807	0.788	0.692	0.851	0.758	0.715	0.67	0.475	0.711	0.787	0.868	0.856	0.899	1.13	1.02	0.997	0.912
SK-LU-1	1.02	0.906	0.868	0.904	0.789	0.679	0.834	0.679	0.742	0.846	0.757	0.855	1	1.05	0.964	1.06	0.391	0.41	0.394	0.369
SW 1573	0.869	0.97	0.879	0.767	0.575	0.532	0.46	0.459	0.693	0.649	0.571	0.861	0.913	0.882	0.8	0.798	0.381	0.292	0.455	0.474
UMC-11	0.821	0.579	0.633	0.578	0.604	0.526	0.66	0.664	0.36	0.41	0.349	0.513	1.16	1.28	1.08	0.98	0.339	0.322	0.371	0.277
